In patent US6525001B1, “Substituted pyrimidine and pyridine herbicides” (Mid-American Commercialization Corporation, priority 1997, dated 2003):

Tests used:
Assay type in all cases: in vivo
Parameters in all cases: key: 0 is no effect; 10 is complete control
[1] = system: bedstraw (Galium aparine); experiment: Test B pre-/postemergence; conditions: for Bedstraw plant response rating: Preemergence
Method in brief: (§1)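 Scored visually 0 (none) to 10 (complete control) against untreated plants after twelve to sixteen greenhouse days. Test chemicals, formulated in surfactant-containing non-phytotoxic solvent, applied to soil after planting and, separately, onto 1- to 4-leaf (2–18 cm) plants.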

[2] = system: blackgrass (Alopecurus myosuroides); experiment: Test B pre-/postemergence; conditions: for Blackgrass plant response rating: Preemergence
Method in brief: as §1

[3] = system: broadleaf signalgrass (Brachiaria decumbens); experiment: Test B pre-/postemergence; conditions: for B. signalgrass plant response rating: Preemergence
Method in brief: as §1

[4] = system: cocklebur (Xanthium strumarium); experiment: Test B pre-/postemergence; conditions: for Cocklebur plant response rating: Preemergence
Method in brief: as §1

[5] = system: corn (Zea mays); experiment: Test B pre-/postemergence; conditions: for Corn plant response rating: Preemergence
Method in brief: as §1

[6] = system: crabgrass (Digitaria sanguinalis); experiment: Test B pre-/postemergence; conditions: for Crabgrass plant response rating: Preemergence
Method in brief: as §1

[7] = system: giant foxtail (Setaria faberii); experiment: Test B pre-/postemergence
Method in brief: as §1

[8] = system: momingglory (Ipomoea hederacea); experiment: Test B pre-/postemergence
Method in brief: as §1

[9] = system: pigweed (Amaranthus retroflexus); experiment: Test B pre-/postemergence
Method in brief: as §1

[10] = system: purple nutsedge (Cyperus rotundus); experiment: Test B pre-/postemergence
Method in brief: as §1

[11] = system: rape (Brassica napus); experiment: Test B pre-/postemergence
Method in brief: as §1

[12] = system: soybean (Glycine max); experiment: Test B pre-/postemergence
Method in brief: as §1

[13] = system: sugar beet (Beta vulgaris); experiment: Test B pre-/postemergence
Method in brief: as §1

[14] = system: velvetleaf (Abutilon theophrasti); experiment: Test B pre-/postemergence
Method in brief: as §1

[15] = system: wheat (Triticum aestivum); experiment: Test B pre-/postemergence
Method in brief: as §1

[16] = system: wild oat (Avena fatua); experiment: Test B pre-/postemergence
Method in brief: as §1

[17] = system: bamyardgrass (Echinochloa crus-galli); experiment: Test B flood test
Method in brief: (§2)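 Flood test on plants grown to the 2-leaf stage; treated plants kept in greenhouse twelve to sixteen days, then visually rated against controls on a 0 (no effect) to 10 (complete control) scale.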

[18] = system: duck salad (Heteranthera limosa); experiment: Test B flood test
Method in brief: as §2

[19] = system: rice (Oryza sativa); experiment: Test B flood test
Method in brief: as §2

[20] = system: smallflower flatsedge (Cyperus difformis); experiment: Test B flood test
Method in brief: as §2

[21] = Rate 250 g/ha, Postemergence (so in the source)
[22] = Rate 62 g/ha, Postemergence (flood test)
[23] = Rate 125 g/ha, Postemergence, flood test
[24] = Rate 250 g/ha, Postemergence (flood test species)
[25] = Rate 125 g/ha, Postemergence section (flood test species)

Cc1cnc(-c2ccc(C#N)cc2)nc1Cc1cccc(C#N)c1 [Compound 36]
Plant response rating, Bedstraw ([1]; Rate 62 g/ha, Postemergence): 6 | Bedstraw plant response rating ([1]; Rate 62 g/ha): 0 | Plant response rating, Bedstraw ([1]; Rate 125 g/ha, Postemergence): 7 | Bedstraw plant response rating ([1]; Rate 125 g/ha): 0 | Plant response rating, Bedstraw ([1]; Rate 250 g/ha, Postemergence): 7 | Plant response rating, Bedstraw [1, 21]: 0 | Plant response rating, Blackgrass ([2]; Rate 62 g/ha, Postemergence): 0 | Blackgrass plant response rating ([2]; Rate 62 g/ha): 0 | Plant response rating, Blackgrass ([2]; Rate 125 g/ha, Postemergence): 0 | Blackgrass plant response rating ([2]; Rate 125 g/ha): 0 | Plant response rating, Blackgrass ([2]; Rate 250 g/ha, Postemergence): 2 | Plant response rating, Blackgrass [2, 21]: 1 | Plant response rating, B. signalgrass ([3]; Rate 62 g/ha, Postemergence): 1 | B. signalgrass plant response rating ([3]; Rate 62 g/ha): 0 | Plant response rating, B. signalgrass ([3]; Rate 125 g/ha, Postemergence): 1 | B. signalgrass plant response rating ([3]; Rate 125 g/ha): 0 | Plant response rating, B. signalgrass ([3]; Rate 250 g/ha, Postemergence): 1 | Plant response rating, B. signalgrass ([3]; Rate 250 g/ha, Postemergence as printed in head r139 (second section for compounds 26-50)): 0 | Plant response rating, Cocklebur ([4]; Rate 62 g/ha, Postemergence): 1 | Cocklebur plant response rating ([4]; Rate 62 g/ha): 0 | Plant response rating, Cocklebur ([4]; Rate 125 g/ha, Postemergence): 2 | Cocklebur plant response rating ([4]; Rate 125 g/ha): 0 | Plant response rating, Cocklebur ([4]; Rate 250 g/ha, Postemergence): 3 | Plant response rating, Cocklebur [4, 21]: 0 | Plant response rating, Corn ([5]; Rate 62 g/ha, Postemergence): 1 | Corn plant response rating ([5]; Rate 62 g/ha): 0 | Plant response rating, Corn ([5]; Rate 125 g/ha, Postemergence): 1 | Corn plant response rating ([5]; Rate 125 g/ha): 0 | Plant response rating, Corn ([5]; Rate 250 g/ha, Postemergence): 1 | Plant response rating, Corn [5, 21]: 0 | Plant response rating, Crabgrass ([6]; Rate 62 g/ha, Postemergence): 0 | Crabgrass plant response rating ([6]; Rate 62 g/ha): 0 | Plant response rating, Crabgrass ([6]; Rate 125 g/ha, Postemergence): 1 | Crabgrass plant response rating ([6]; Rate 125 g/ha): 0 | Plant response rating, Crabgrass ([6]; Rate 250 g/ha, Postemergence): 1 | Plant response rating, Crabgrass [6, 21]: 0 | Plant response rating, Giant foxtail ([7]; Rate 62 g/ha, Postemergence): 0 | Giant foxtail plant response rating ([7]; Rate 62 g/ha, Preemergence): 0 | Giant foxtail plant response rating ([7]; Rate 125 g/ha, Postemergence): 1 | Giant foxtail plant response rating ([7]; Rate 125 g/ha, Preemergence): 0 | Plant response rating, Giant foxtail ([7]; Rate 250 g/ha, Postemergence): 1 | Plant response rating, Giant foxtail [7, 21]: 0 | Plant response rating, Morningglory ([8]; Rate 62 g/ha, Postemergence): 1 | Morningglory plant response rating ([8]; Rate 62 g/ha, Preemergence): 0 | Morningglory plant response rating ([8]; Rate 125 g/ha, Postemergence): 2 | Morningglory plant response rating ([8]; Rate 125 g/ha, Preemergence): 0 | Plant response rating, Morningglory ([8]; Rate 250 g/ha, Postemergence): 2 | Plant response rating, Morningglory [8, 21]: 0 | Plant response rating, Redroot pigweed ([9]; Rate 62 g/ha, Postemergence): 0 | Redroot pigweed plant response rating ([9]; Rate 62 g/ha, Preemergence): 0 | Redroot pigweed plant response rating ([9]; Rate 125 g/ha, Postemergence): 4 | Redroot pigweed plant response rating ([9]; Rate 125 g/ha, Preemergence): 0 | Plant response rating, Redroot pigweed ([9]; Rate 250 g/ha, Postemergence): 8 | Plant response rating, Redroot pigweed [9, 21]: 8 | Plant response rating, Nutsedge ([10]; Rate 62 g/ha, Postemergence): 0 | Nutsedge plant response rating ([10]; Rate 62 g/ha, Preemergence): 0 | Nutsedge plant response rating ([10]; Rate 125 g/ha, Postemergence): 0 | Nutsedge plant response rating ([10]; Rate 125 g/ha, Preemergence): 0 | Plant response rating, Nutsedge ([10]; Rate 250 g/ha, Postemergence): 0 | Plant response rating, Nutsedge [10, 21]: 0 | Plant response rating, Rape ([11]; Rate 62 g/ha, Postemergence): 4 | Rape plant response rating ([11]; Rate 62 g/ha, Preemergence): 0 | Rape plant response rating ([11]; Rate 125 g/ha, Postemergence): 5 | Rape plant response rating ([11]; Rate 125 g/ha, Preemergence): 0 | Plant response rating, Rape ([11]; Rate 250 g/ha, Postemergence): 5 | Plant response rating, Rape [11, 21]: 1 | Plant response rating, Soybean ([12]; Rate 62 g/ha, Postemergence): 1 | Soybean plant response rating ([12]; Rate 62 g/ha, Preemergence): 0 | Soybean plant response rating ([12]; Rate 125 g/ha, Postemergence): 1 | Plant response rating, Soybean ([12]; Rate 125 g/ha, Preemergence): 0 | Plant response rating, Soybean ([12]; Rate 250 g/ha, Postemergence): 2 | Plant response rating, Soybean [12, 21]: 1 | Plant response rating, Sugarbeets ([13]; Rate 62 g/ha, Postemergence): 8 | Sugarbeets plant response rating ([13]; Rate 62 g/ha, Preemergence): 0 | Sugarbeets plant response rating ([13]; Rate 125 g/ha, Postemergence): 8 | Plant response rating, Sugarbeets ([13]; Rate 125 g/ha, Preemergence): 0 | Plant response rating, Sugarbeets ([13]; Rate 250 g/ha, Postemergence): 9 | Plant response rating, Sugarbeets [13, 21]: 2 | Plant response rating, Velvetleaf ([14]; Rate 62 g/ha, Postemergence): 1 | Velvetleaf plant response rating ([14]; Rate 62 g/ha, Preemergence): 0 | Velvetleaf plant response rating ([14]; Rate 125 g/ha, Postemergence): 1 | Plant response rating, Velvetleaf ([14]; Rate 125 g/ha, Preemergence): 0 | Plant response rating, Velvetleaf ([14]; Rate 250 g/ha, Postemergence): 1 | Plant response rating, Velvetleaf [14, 21]: 1 | Wheat plant response rating ([15]; Rate 62 g/ha, Postemergence): 0 | Wheat plant response rating ([15]; Rate 62 g/ha, Preemergence): 0 | Wheat plant response rating ([15]; Rate 125 g/ha, Postemergence): 1 | Plant response rating, Wheat ([15]; Rate 125 g/ha, Preemergence): 0 | Plant response rating, Wheat ([15]; Rate 250 g/ha, Postemergence): 2 | Plant response rating, Wheat [15, 21]: 0 | Wild oats plant response rating ([16]; Rate 62 g/ha, Postemergence): 0 | Wild oats plant response rating ([16]; Rate 62 g/ha, Preemergence): 0 | Wild oats plant response rating ([16]; Rate 125 g/ha, Postemergence): 1 | Plant response rating, Wild oats ([16]; Rate 125 g/ha, Preemergence): 0 | Plant response rating, Wild oats ([16]; Rate 250 g/ha, Postemergence): 2 | Plant response rating, Wild oats [16, 21]: 0 | Plant response rating, Barnyardgrass [17, 22]: 0 | Plant response rating, Barnyardgrass [17, 23]: 0 | Plant response rating, Barnyardgrass [17, 24]: 0 | Plant response rating, Ducksalad [18, 22]: 0 | Plant response rating, Ducksalad [18, 23]: 0 | Plant response rating, Ducksalad [18, 24]: 1 | Plant response rating, Rice [19, 22]: 0 | Rice plant response rating [19, 25]: 0 | Plant response rating, Rice [19, 24]: 0 | Plant response rating, S. Flatsedge [20, 22]: 2 | S. Flatsedge plant response rating [20, 25]: 5 | Plant response rating, S. Flatsedge [20, 24]: 6
